In patent US20120142766A1, “SUBSTITUTED 1,3-DIOXANES AND THEIR USES” (EVOLVA SA, priority 2007, published 2012):

How the values were obtained:
KKA^y mice = assay: KKAy mice on high fat diet, 14-day oral gavage BID; format: in vivo, mouse
Experimental: 52 male KKA^y mice are obtained commercially (e.g., from Clea Japan) at an age of 6 weeks and put on a high fat diet upon arrival. Individual mice were housed in IVC Type II cages during both the acclimatization and the experimental phase. Both food (high fat diet) and water are supplied ad libitum.
1 animal per cage. […] Lights on at 06:00 a.m. Temperature: 21-25° C. Relative humidity target range: 55-60%.
Mice were randomized into treatment groups according to their 4-h fasting blood glucose.
4 hours after the last administration, non-fasting conditions.
Gamma irradiated high fat diet is commercially available (e.g., Research Diets, Inc. New Brunswick, N.J. (Product # D12266BI)).
Blood is collected into heparin containing glass capillaries which are subsequently centrifuged in a “Haematokrit 24” centrifuge (Hettich) at 15′200×g for 10 minutes at room temperature to obtain the hematocrit value.
The following serum parameters are determined on a COBAS INTEGRA 800 auto analyzer (Roche Diagnostics, Switzerland) using the reagents and protocols provided by the supplier.
All measurements are made on Day 14 of administration, except for the food intake and body weight measurements that are made on Day 12.

[1] = test system: arterial thrombosis in a mouse model; assay: Arterial thrombosis mouse model (FeCl3 on femoral artery); format: in vivo
Experimental: The solutions are diluted 3.3-fold in saline and 100 μl/25 g is injected. Thus, the above-mentioned doses of 100 and 300 mg/kg of compound correspond to final doses of 30 and 100 mg/kg.
During the experiments, a soluble salt of the drug is provided (potassium salt of compound C), diluted in saline. Of this formulation, 100 μl/25 g is injected i.v. in the tail vein (dose of 100 mg/kg).
Solutions are injected (100 μl/25 g body weight) i.v. in the tail vein over 2 min to obtain doses of each compound of 30 mg/kg and 100 mg/kg. Aspirin is given the same way at a dose of 200 mg/kg. Clopidogrel is administered by oral gavage at a dose of 20 mg/kg at 6-7 hours prior to the experiment. The animals assigned to each group are matched for body weight. Mice are typically 8-10 weeks old males and are in a 100% Swiss genetic background.
The flow in each image is expressed as a percentage of that at the contralateral side, and data are averaged for all 120 images to determine total flow. The same analysis is performed for 10 min intervals (which gives essentially the same information as the area under the curve). […] Flow before treatment is recorded as 100%, and that in occluded arteries as 0%. At the end of the experiment, blood is collected on 0.01M citrate by heart puncture for determination of blood cell counts. Plasma is prepared by centrifugation and stored at −20° C. for determination of drug levels.
Statistical analysis for differences between two groups is performed by non-parametric Student t-test. Occlusion times >30 min were considered equal to 30 min for statistical analysis. Significance is set at p<0.05.

[2] = target: T1, Thromboxane receptor (TP) (Homo sapiens, UniProt P21731); assay: TP receptor radioligand binding ([3H] SQ-29548); settings: Human recombinant HEK-293 cells
T1 construct: expressed in transfected cells; host or cells: HEK-293
T1 sequence (P21731 1-343): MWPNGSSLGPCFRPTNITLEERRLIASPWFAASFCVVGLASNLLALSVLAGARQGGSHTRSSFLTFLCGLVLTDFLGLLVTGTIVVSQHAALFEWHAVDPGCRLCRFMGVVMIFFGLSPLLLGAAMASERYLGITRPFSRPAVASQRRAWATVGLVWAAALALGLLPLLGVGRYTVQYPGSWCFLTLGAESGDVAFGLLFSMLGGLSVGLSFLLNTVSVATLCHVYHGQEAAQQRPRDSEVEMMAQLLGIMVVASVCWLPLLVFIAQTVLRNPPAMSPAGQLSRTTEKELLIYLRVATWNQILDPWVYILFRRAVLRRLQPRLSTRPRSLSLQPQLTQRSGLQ
Experimental: The compounds were tested on radioligand binding assays for thromboxane receptor binding essentially as described by Hedberg et al. (1988) J. Pharmacol. Exp. Ther. 245:786-792 and Saussy et al. (1986) J. Biol. Chem. 261: 3025-3029 according to the following:
TP Receptor Radioligand Binding Studies:
Human recombinant HEK-293 cells,
Incubation Time, Temp: 30 minutes at 25° C.
Incubation Buffer: 50 mM Tris-HCl, pH 7.4, 154 mM NaCl
Non-Specific Ligand: 1 μM SQ-29548
The data were transformed to semi-log and then analysed using non-linear regression to a four-parameter dose-response curve Y=Bottom+(Top−Bottom)/(1+10̂((LogEC50−X)*HillSlope)) using the log(agonist) vs. response—Variable slope function of GraphPad Prism software (http://graphpad.com/help/prism5/prism5help.html?usitignonlinear_regression_step_by_s.htm).

[3] = test system: New Zealand Rabbit platelet rich plasma; assay: TP receptor platelet aggregation, rabbit (U-46619-induced); format: cell-based
Experimental: Thrombosis Research 33:277-288.
TP Receptor Platelet Aggregation—Rabbit:
New Zealand Rabbit (2.75±0.25 kg) platelet rich plasma
Assay: Inhibition of 1.5 μM U-46619-induced platelet aggregation Incubation Time, Temp: 5 minutes at 37° C. Incubation Buffer Trisodium Citrate (0.13 M)-treated platelet rich plasma
Time of Assessment: 5 minutes
Quantification Method Optical Density Change

Thromboxane synthase = target: T2, Thromboxane synthase (Homo sapiens, UniProt P24557); assay: Human platelet thromboxane synthase assay; format: biochemical
T2 construct: Human Platelet Thromboxane Synthase Assay; from tissue; host or cells: human platelets
T2 sequence (P24557 1-533): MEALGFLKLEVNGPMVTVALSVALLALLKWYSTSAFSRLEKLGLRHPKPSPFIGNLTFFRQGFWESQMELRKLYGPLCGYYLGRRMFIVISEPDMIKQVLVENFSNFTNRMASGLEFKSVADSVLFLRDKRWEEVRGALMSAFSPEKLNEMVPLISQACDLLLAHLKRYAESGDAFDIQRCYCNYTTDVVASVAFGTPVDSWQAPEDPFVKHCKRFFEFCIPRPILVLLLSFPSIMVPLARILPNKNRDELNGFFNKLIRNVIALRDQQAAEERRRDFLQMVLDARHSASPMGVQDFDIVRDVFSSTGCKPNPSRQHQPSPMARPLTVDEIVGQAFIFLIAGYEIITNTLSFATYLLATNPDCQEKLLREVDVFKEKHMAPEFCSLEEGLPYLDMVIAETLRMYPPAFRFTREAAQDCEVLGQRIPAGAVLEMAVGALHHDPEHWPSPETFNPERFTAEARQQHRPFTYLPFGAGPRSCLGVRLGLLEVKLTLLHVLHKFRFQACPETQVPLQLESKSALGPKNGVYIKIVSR
Experimental: The compounds were tested for thromboxane synthase inhibition essentially as described by Borsch-Haubold A G, Pasquet S, Watson S P. (1998) Direct inhibition of cyclooxygenase-1 and -2 by the kinase inhibitors SB 203580 and PD 98059. […] 1. Imidazole derivatives. J Med. Chem. (10):1139-48 according to the following:
Pre-incubation time, temp: 15 minutes at 25° C. Incubation time, temp: 3 minutes at 25° C.
Incubation Buffer: 10 mM Tris-HCl, pH 7.4
Quantification Method: EIA quantification of TxB2

[4] = target: T3, Human Recombinant (E. coli) PPARgamma (Homo sapiens, UniProt P37231); assay: PPAR gamma binding assay ([3H]-rosiglitazone); settings: [3H]-rosiglitazone 10 nM; read-out: PPARγ binding IC50
T3 construct: host or cells: E. coli
T3 sequence (P37231 1-505): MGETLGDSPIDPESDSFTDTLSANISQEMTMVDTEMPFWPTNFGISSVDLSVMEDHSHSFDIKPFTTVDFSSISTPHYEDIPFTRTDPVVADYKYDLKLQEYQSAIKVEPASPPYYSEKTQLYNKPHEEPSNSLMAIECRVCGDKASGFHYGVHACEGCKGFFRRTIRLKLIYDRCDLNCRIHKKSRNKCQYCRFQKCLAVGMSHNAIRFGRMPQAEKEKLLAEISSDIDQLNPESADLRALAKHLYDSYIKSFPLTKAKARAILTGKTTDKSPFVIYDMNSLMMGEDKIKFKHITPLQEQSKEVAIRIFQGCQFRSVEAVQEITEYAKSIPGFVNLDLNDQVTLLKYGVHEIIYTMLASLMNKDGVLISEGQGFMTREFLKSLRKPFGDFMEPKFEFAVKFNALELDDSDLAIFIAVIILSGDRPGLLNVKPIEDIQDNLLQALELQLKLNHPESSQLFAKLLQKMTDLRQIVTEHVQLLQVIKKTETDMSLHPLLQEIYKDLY
Experimental: Incubation: 120 min. at 4° C.
The results are expressed as a percent of control specific binding ((measured specific binding/control specific binding)×100) obtained in the presence of the test compounds. The IC50 values (concentration causing a half-maximal inhibition of control specific binding) and Hill coefficients (nil) were determined by non-linear regression analysis of the competition curves generated with mean replicate values using Hill equation curve fitting (Y=D+[(A−D)/(1+(C/C50)nH)], where Y=specific binding, D=minimum specific binding, A=maximum specific binding, C=compound concentration, C50=IC50, and nH=slope factor). This analysis was performed using a software developed at Cerep (Hill software) and validated by comparison with data generated by the commercial software SigmaPlot® 4.0 for Windows® (© 1997 by SPSS Inc.). The inhibition constants (Ki) were calculated using the Cheng Prusoff equation (Ki=IC50/(1+(L/KD)), where L=concentration of radioligand in the assay, and KD=affinity of the radioligand for the receptor).

[5] = 14-day BID, enoic acid 53 mg/kg, rosiglitazone 5 mg/kg, Compounds 3 and 13 dose not stated
[6] = Oryctolagus cuniculus, Platelet, 1.5 μM U-46619-induced
[7] = 5 mg/kg BID oral gavage, Day 12, mean ± S.E.M.
[8] = 5 mg/kg BID oral gavage, Day 14, mean ± S.E.M.

O=C(O)CC/C=C\C[C@@H]1COC(c2ccc(Nc3ccccc3)cc2)O[C@@H]1c1ccccc1O (mixture of isomers) [Compound 3, (Z)-6-(4-(2-Hydroxyphenyl)-2-(4-(phenylamino)phenyl)-1,3-dioxan-5-yl)hex-4-enoic acid]
Body weight (in words) (KKA^y mice; [5]): do not alter body weight | FFA (in words) (KKA^y mice; [5]): decreases the FFA | HbA1c levels (in words) (KKA^y mice; [5]): decreased | Heart weight (in words) (KKA^y mice; [5]): no effect on heart weight

CC(=O)Oc1ccccc1C(=O)O [Aspirin]
Occlusion time ([1]; 200 mg/kg i.v.): no effect on the occlusion time | Total blood flow ([1]; 200 mg/kg i.v.): no significant effect on the total blood flow

COC(=O)[C@H](c1ccccc1Cl)N1CCc2sccc2C1 [Clopidogrel]
Total blood flow ([1]; 20 mg/kg oral gavage 6-7 hours prior): significantly improved total blood flow

O=C(O)CC/C=C\C[C@@H]1COC(c2ccccc2Oc2ccc(F)cc2)O[C@@H]1c1ccccc1O (stereo partly shown) [Compound 4]
inhibition at 10 µM [2]: 100% | inhibition at 10 µM [3, 6]: 100% | inhibition at 5 µM (Thromboxane synthase; 5 μM): 39% | IC50 [4]: 2.1 µM

O=C(O)CC/C=C\C[C@@H]1COC(c2ccccc2-c2ccccc2)O[C@@H]1c1ccccc1O (stereo partly shown) [Compound 10]
inhibition at 10 µM [2]: 102% | IC50 ([2]; 5 nM [3H] SQ-29548): 11 nM | Ki ([2]; 5 nM [3H] SQ-29548): 7.2 nM | inhibition at 30 µM ([3]; Oryctolagus cuniculus, Platelet, 30 μM, 1.5 μM U-46619-induced): 100% | Inhibition of platelet aggregation (in words) ([3]; Table 2): potent inhibitors of platelet aggregation | IC50 (Thromboxane synthase): 0.84 µM | Thromboxane synthase Human platelet Inhibition (%) at 5 μM (Thromboxane synthase; 5 μM): 76% | inhibition at 5 µM (Thromboxane synthase; 5 μM): 75% | Inhibition of thromboxane synthase (in words) (Thromboxane synthase; Table 2): inhibitors of thromboxane synthase | Occlusion time ([1]; dose not given): prolongs the occlusion time | Total blood flow ([1]; dose not given): improves total blood flow

COc1ccccc1C1OC(c2ccccc2Cl)OCC1C/C=C\CCC(=O)O (stereo not shown) [Compound D, (Z)-6-(-2-(2-chlorophenyl)-4-(2-methoxyphenyl)-1,3-dioxan-5-yl)hex-4-enoic acid]
inhibition at 10 µM [2]: 98% | inhibition at 10 µM [3, 6]: 33% | inhibition at 5 µM (Thromboxane synthase; 5 μM): 12% | IC50 [4]: 21 µM

COc1ccc(C(=O)NCc2cccnc2)cc1C(=O)NCc1cccnc1 [Picotamide]
inhibition at 100 µM ([3]; Oryctolagus cuniculus, Platelet, 100 μM, 1.5 μM U-46619-induced): 36% | IC50 (Thromboxane synthase): 10.1 µM | inhibition at 10 µM (Thromboxane synthase; 10 μM): 53%

CN(CCOc1ccc(CC2SC(=O)NC2=O)cc1)c1ccccn1 (stereo not shown) [Rosiglitazone]
Body Weight (KKA^y mice; [7]): 49.5 ± 1.0 g | Food Intake (KKA^y mice; [7]): 4.5 ± 0.6 g/day | ALP (KKA^y mice; [8]): 26.0 ± 1.7 dU/L | ALT (KKA^y mice; [8]): 8.9 ± 0.9 dU/L | AST (KKA^y mice; [8]): 10.1 ± 0.9 dU/L | FFA (KKA^y mice; [8]): 1.3 ± 0.1 mM | Fructosamine (KKA^y mice; [8]): 0.35 ± 0.03 mM | HDL (KKA^y mice; [8]): 3.6 ± 0.2 mM | HbA1C (KKA^y mice; [8]): 7.8 ± 0.4 % | Heart weight (KKA^y mice; [8]): 226.2 ± 6.9 mg | Hematocrit (KKA^y mice; [8]): 40.3 ± 1.5% | Insulin (KKA^y mice; [8]): 17.9 ± 4.2 µg/L | Serum Glucose (KKA^y mice; [8]): 18.8 ± 2.2 mM | TG (KKA^y mice; [8]): 1.0 ± 0.2 mM | Total Cholesterol (KKA^y mice; [8]): 4.0 ± 0.4 mM | Body weight (in words) (KKA^y mice; [5]): increased | Heart weight (in words) (KKA^y mice; [5]): increased
